The record followed here is patent US20080145313A1, “Compositions and Methods for the Treatment and Prevention of Neoplastic Disorders” (Genesis Research & Development Corporation Limited, priority 2006, published 2008).

Data set [1] concerns A549 cells. Nature of the data set: Growth inhibition of siRNA-transfected A549 cells, SYBR Green I DNA content. The class given is cell-based, human. The settings on record: 10 nM siRNA; DNA content 96 hours after transfection. In short, it runs like this: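 Growth read-out: cellular DNA quantified with SYBR Green I (485/535 nm) 96 h after transfection, cells frozen, thawed and lysed in PBS/1% Triton X-100, pH 7. Cells (A549, 5×10^3 cells/cm^2) received 10 nM siRNA by RNAiMAX; non-specific siRNA served as control; triplicate wells averaged.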

Data set [2] deals with A549 cells. Nature of the data set: MTT cell proliferation assay of A549 cells transfected with thymidylate synthase siRNA. The settings on record: 6, 12 and 50 nM siRNA; 72 h. The class given is cell-based, human. The procedure:
siRNA mediated silencing in Human A549 cells A549 cells (ATCC No. CCL-185), a human lung cancer cell line, were cultured in RPMI 1640 medium with 5% v/v dialyzed fetal calf serum. Cells were seeded at a density of 2×10^4 cells/100 μl in 96-well plates. Stealth™ siRNA duplexes targeting the thymidylate synthase (SEQ ID NO: 23) gene were transfected at concentrations of 6, 12, and 50 nM into the A549 cells using Lipofectamine 2000 transfection reagent (Invitrogen). After 72 h, cell viability was assessed by measuring cell proliferation using a standard MTT assay (Mosman, J. Immunol. Methods 65:55-63, 1983).

For a further data set, the system named is HCT-116 cells. Nature of the data set: 5FU toxicity in HCT-116 cells after TYMS or DHFR knockdown, SYBR Green. It is filed as cell-based. To be noted: cells transfected with 0.1 nM siRNA; 5FU continuous for 3 days; read-out: IC50 value of 5FU following TYMS knockdown, HCT-116. As to the method: (§1) HCT-116 and A549 cells were transfected as described above with 0.1, 1.0 and 10 nM of three TYMS-specific siRNAs, labeled TYMS-1, TYMS-2 and TYM-3 (SEQ ID NO: 4833-4835 (DNA), and SEQ ID NO: 5139-5141 (RNA), or 1.0 and 10 nM control siRNAs (809-ctrl; SEQ ID NO: 4805 (DNA), and SEQ ID NO: 5302 (RNA) and 81ctrl; SEQ ID NO: 4804 (DNA), and SEQ ID NO: 5301 (RNA)). HCT-116 and A549 cells were also similarly transfected with 0.1, 1.0 and 10 nM of three DHFR-specific siRNAs, labeled DHFR-1, DHFR-2 and DHFR-3 (SEQ ID NO: 4836-4838 (DNA), and SEQ ID NO: 5142-5144 (RNA)), or control siRNA (SEQ ID NO: 4805 (DNA), and SEQ ID NO: 5302 (RNA)). Twenty four hours after transfection, cells were exposed to 5FU using a serial dilution starting at 44 μM, in medium containing either 10% normal FCS or 10% dialyzed FCS as described above. 5FU treatment was continuous for 3 days, at which time cell growth was analyzed by measuring DNA content per well using the SYBR Green assay outlined above. […] This combinatorial inhibitory effect was further increased when experiments were done in medium containing dialyzed FCS (FIGS. 27D-F; FIGS. 28D-F).
(§2) FIGS. 29 and 30 show transfection with DHFR siRNA similarly led to a dose-dependent increase in growth inhibition above that caused by the drug alone (control siRNA-transfected cells) in HCT-116 cells (FIGS. 29A-C), and A549 cells (FIGS. 30A-C). This combinatorial inhibitory effect was further increased when experiments were done in medium containing dialyzed FCS (FIGS. 29D-F; FIGS. 30D-F). The changes in the IC50 value for 5FU in HCT-116 and A549 cells following TYMS knockdown by individual siRNAs are listed in Table 16 below.

For data set [3], the system named is A549 cells. Nature of the data set: 5FU toxicity in A549 cells after TYMS or DHFR knockdown, SYBR Green. It is filed as cell-based, human. The settings on record: 5FU continuous for 3 days, read-out: IC50 value of 5FU following TYMS knockdown, A549. The procedure: as §1, §2
A further data set deals with A549 tumors. The data set can be described thus: Uptake of Alexa 555-labeled siRNA into A549 tumor cells in vivo after intratumoral injection. The arrangement: species or system mouse. To be noted: 25 μg i.t. The procedure: An Alexa 555-labeled control siRNA was used to determine the cellular uptake of siRNA in tumor tissues when given via intratumoral (i.t.) injection. A549 cells (6−8×10^6 cells) were s.c. inoculated into CD-1 nude mice. Once the A549 tumors reached a size of approximately 100 mm^3, mice were divided into two groups of four mice each. The Alexa 555-labeled Stealth™ siRNA (SEQ ID NO: 5111 (DNA), and SEQ ID NO: 5300 (RNA); Invitrogen Corp.) at a dose of 25 μg (in 50 μl) was injected into tumors of one group. 50 μl PBS was injected into tumors of a negative control group. Tumors were harvested at 6 and 24 h after injection and placed in a labeled cryomold (Tissue-TeK® Crymold®; ProSciTech, Thuringowa, Queensland, Australia) and covered with OCT tissue freezing medium (O.C.T. Compound, ProSciTech). The mold was gently submerged in liquid nitrogen for approximately one minute until OCT turned white and opaque. Tissues were stored at minus 80° C. until sections were cut. Tissues were allowed to reach −20° C. before processing in a Leica Cryostat (Leica Microsystems, Inc., Bannockburn Ill.) at 10 microns. Sections were picked up on Super Frost Plus slides (Esco, Biolab Scientific, New Zealand). After air-drying, sections were fixed in freshly prepared 2% paraformaldehyde solution for 2 minutes at room temperature and then rinsed in PBS to remove the fixative. The slides were mounted in Prolong Gold antifade reagent with DAPI (Molecular Probes®, Invitrogen Corp.), covered with cover slips and sealed to the slides with clear nail polish. The slides were stored at 4° C. in the dark. Fluorescence in the tumor samples was visualized using a Zeiss Axioskop Microscope (Carl Zeiss microimaging, Inc., Thornwood N.Y.) and Leica SP-2 Confocal Microscope (Leica Microsystems, Inc.). Autofluorescence in tumor tissues was very low in all filters examined (green, red and UV). […]

The next data set concerns A549 xenografted tumors. Nature of the data set: Intratumoral siRNA treatment of established A549 tumors in CD-1 nude mice. The class given is in vivo, mouse. As to the method: A549 cells (6−8×10^6 cells) were s.c. inoculated into CD-1 nude mice as described above. When tumors reached an average volume of approximately 100 mm^3, the tumor-bearing mice were randomly assigned into three different treatment groups (RRM1 siRNA, control siRNA and PBS) with 5 to 6 mice in each group. There were no significant differences in tumor volumes among groups prior to the initiation of treatments. Mice were anesthetized by gaseous isoflurane and 50 μl siRNA or PBS was injected directly into tumors using a 30-gauge needle. Two experiments were conducted. In the first experiment (IT#1), the animals received a dose of 50 μg of siRNA in each intratumoral (i.t.) injection and the injections were performed 3 times per week for 2 weeks. In the second experiment (IT#2), 25 μg siRNA was used and mice were injected 3 times per week for 3 weeks. The tumor volume was determined immediately before each injection by perpendicular measurements of the shortest and longest diameters as described above.

Another data set deals with A549 xenograft tumor. Nature of the data set: Xenograft tumor growth of A549 cells transfected with siRNA pre-implantation in CD-1 nude mice. The class given is in vivo, mouse. The procedure:
To determine the effect of RRM1 knockdown on tumor growth, A549 cells (human lung cancer cell line; ATCC No. CCL-185) were reverse-transfected prior to implantation in CD-1 nude mice. In 175 cm^2 culture flasks, 10×10^6 A549 cells (in RPMI supplemented with 10% fetal calf serum) were added to pre-made lipoplexes. To make lipoplexes, Lipofectamine RNAiMAX in serum-free RPMI was added to an equal volume of serum-free RPMI containing siRNA (RRM1-2; SEQ ID NO: 4831 (DNA), and SEQ ID NO: 5137 (RNA)) and a control siRNA (SEQ ID NO: 4804 (DNA), and SEQ ID NO: 5301 (RNA)). After addition of cells, the final concentration of siRNA in the flask was 10 nM. Untransfected cells served as a further control. Flasks were incubated at 37° C. for 24 h to allow transfection to proceed.
The cells were harvested by trypsinization 24 h after the transfection, washed twice in PBS and viable cells were counted. Equal numbers of cells (1×10^7) were inoculated into CD-1 nude mice (n=7-9). Briefly, 5 to 7 weeks old nude mice were subcutaneously (s.c.) injected in the right flank with A549 cells in 100 μl PBS. Tumor growth was monitored 3 times per week by measuring tumor sizes using a digital caliper. Tumor volume was expressed in […] using the formula: V=a^2×b×0.52, where a and b represent the minimum and maximum tumor diameter, respectively. Mean tumor volumes calculated from each measurement were then plotted in a standard graph to compare the tumor growth of transfected cells to that of control.
To determine the effect of siRNA-mediated knockdown of HK-II, CAD, IMPDH2, RRM2, SLC16A1 and SLC29A1 on tumor growth, A549 cells (human lung cancer cell line; ATCC No. CCL-185) were reverse-transfected prior to implantation in CD-1 nude mice as described above with siRNAs given in SEQ ID NO: 5307 (DNA), and SEQ ID NO: 5304 (RNA) for RRM2, SEQ ID NO: 4932 (DNA), and SEQ ID NO: 5227 (RNA) for ENT1, SEQ ID NO: 4813 (DNA), and SEQ ID NO: 5119 (RNA) for HK-II, SEQ ID NO: 4827 (DNA), and SEQ ID NO: 5133 (RNA) for CAD, SEQ ID NO: 4879 (DNA), and SEQ ID NO: 5182 (RNA) for IMPDH2 and SEQ ID NO: 4924 (DNA), and SEQ ID NO: 5219 (RNA) for SLC16A1, respectively. The siRNA given in SEQ ID NO: 4804 (DNA), and SEQ ID NO: 5301 (RNA) was used as control.
In two separate experiments, CD-1 mice were divided into five groups that received untransfected A549 cells, cells transfected with control siRNA or three different siRNAs (as listed above), respectively. Cells were transfected in vitro using the method as described in Example 8, and 24 h after transfection, s.c. inoculated into mice. Tumor growth was measured 3 times per week. In the first experiment, mice received cells transfected with siRNA targeting RRM2, HK-II or SLC29A1 and were monitored for 33 days. In the second experiment, mice received cells transfected with siRNA targeting CAD, IMPDH2 or SLC16A1, and were monitored for 26 days. […] Similarly, preliminary data indicated tumor growth rate was reduced for the groups receiving cells transfected with siRNA targeting CAD and SLC16A1. Twenty-six days after cell inoculation, the tumor volume for mice with cells transfected with siRNA targeting CAD or SLC16A1 was 97.2±7.3 mm^3 or 110.1±28.1 mm^3, respectively.

Like-named read-outs stand apart in the source and are kept apart here.

The term IC50 denotes the concentration that inhibits the measured activity by half. With “SEQ ID NO: 4833: siRNA targeting TYMS (chain 1 AGCAGAGGGAATTCATCTCTCAGGC; chain 2 AGCAGAGGGAAUUCAUCUCUCAGGC; chemistry not given here; one strand in two spellings)”, the “Growth Inhibition in A549 cells” value in the data set with A549 cells [1] is recorded as “+ (inhibits by at least 50%)”. Further, the “cell growth (MTT assay)” value in the data set on A549 cells [2] is on record as “dose-dependent inhibition of cell growth”. For the same substance, the IC50 stood at 100 nM in the data set with HCT-116 cells, 340 nM in the data set with A549 cells [3] (cells transfected with 0.1 nM siRNA), 110 nM in the data set on A549 cells [3] (cells transfected with 1 nM siRNA) and 140 nM with A549 cells [3] (cells transfected with 10 nM siRNA).

In the case of “Alexa 555-labeled siRNA: Alexa 555-labeled control Stealth siRNA (Invitrogen) (chain 1 CCGCAACAACGCCATCTATGAGAAA; chain 2 CCGCAACAACGCCAUCUAUGAGAAA; Alexa 555 label, position not given here, Stealth siRNA, chemistry not given here; one strand in two spellings)”, the “cellular uptake of siRNA in tumor tissue (fluorescence)” value in the data set on A549 tumors (6 h after injection) is “red punctuations were seen in some tumor cells, indicative of uptake of siRNA”; with A549 tumors (24 h after injection), “also observed in the samples taken 24 h after injection, although in slightly lower number of cells”. Also, the “intracellular localization of siRNA fluorescence” value with A549 tumors (6 h after injection, overlay with DAPI) is reported as “located in the cytoplasm around the periphery of the nuclei”.

In the data set on A549 xenografted tumors (IT#1: 50 μg i.t. 3 times per week for 2 weeks, day 15 after treatment initiation), “SEQ ID NO: 4804: non-specific control siRNA against an irrelevant target (chain 1 AGCAGAGGGAATTCATCTCTCAGGC; chain 2 AGCAGAGGGAAUUCAUCUCUCAGGC; chemistry not given here; one strand in two spellings) [reference compound]” gave an average tumor volume of 238.7±41.4 mm^3. The tumor volume with A549 xenografted tumors (IT#2: 25 μg i.t. 3 times per week for 3 weeks, day 21 post-treatment initiation) was determined as 248.9±37.3 mm^3; in the data set on A549 xenograft tumor (twenty-six days after cell inoculation, preliminary data), 154.3±23.7 mm^3. Moreover, the average tumor size in the data set with A549 xenograft tumor (six weeks after the cell inoculation, 10 nM siRNA pre-implantation) came to 370.7±63.8 mm^3; with A549 xenograft tumor (thirty-three days after the cell inoculation, preliminary data), 172.3±36.1 mm^3.
